The series in a line: gradient 5% acetonitrile 3 min, to 50% in 2 min, to 85% in 15 min, held 3 min, 100 µL/min. The settings on record: column: Zorbax Extend-C18 2.1 x 50 mm; eluents: water / acetonitrile, 0.1% formic acid. In short, it runs like this: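 Pure standards were analyzed in mixtures of ~100 molecules using HPLC coupled to a quadrupole time-of-flight mass spectrometer, in both positive and negative ionization mode. Separation used a Zorbax Extend-C18 column (2.1 × 50 mm, 1.8 μm) at 100 μL/min, with water and acetonitrile each containing 0.1% formic acid. Dead and dwell volumes were 40 μL and 900 μL, and data were collected over 3 months. Retention time was read from computationally picked adduct peaks, each inspected manually.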
Compound `CSc1ncc(Cl)c(C(=O)NCc2ccco2)n1` yielded an RP-LC retention time of 753 s. Compound `O=S(=O)(c1cc(-c2nnc(-c3ccccc3)o2)ccc1F)N1CCOCC1` returned an RP-LC retention time of 888 s. On to `Cc1cc(N2C=C(C(=O)N3CCOCC3)S(=O)(=O)c3ccc(F)cc32)ccc1Br`, for which the RP-LC retention time amounted to 892 s. Take `CCOc1ccc(NC(=O)N2CCC3(C2)C(=O)Nc2ccccc23)cc1` (stereo unspecified): the RP-LC retention time was 720 s. As for `O=c1c(NCCc2ccccn2)nc2ccncc2n1Cc1ccccc1`, the RP-LC retention time came out at 551 s. `O=C(CSCc1ccccc1)Nc1ccccc1Cl` displayed an RP-LC retention time of 978 s. Take `O=C(Nc1ccccc1)NC1CCN(C(=O)N2C[C@H]3C[C@H](C2)[C@H]2CCCC(=O)N2C3)CC1`: the RP-LC retention time came out at 654 s. Compound `Cc1ccccc1-c1noc(CN2N=NC3C(=O)N(c4ccc(F)c(F)c4)C(=O)C32)n1` (stereo unspecified) yielded an RP-LC retention time of 804 s. The figure for `Cc1oc2ccn(Cc3cccc(F)c3)c(=O)c2c1C(=O)NC1CCCCCC1` is 1270 s; for `CSc1ccc(-c2nc3ccccn3c2NC2CCCCC2)cc1` it is 802 s. Regarding `CCC(C)NC(=O)NCCC1CCN(S(=O)(=O)c2ccc(C)cc2)CC1` (stereo unspecified), the RP-LC retention time came to 861 s. Then `CCNC(=O)c1nc(C(=O)NCc2cc(F)cc(F)c2)cs1`, with 781 s. `CCNS(=O)(=O)c1cccnc1Nc1cccc(Br)c1` displayed an RP-LC retention time of 1040 s. `O=C(Nc1ccc2c(c1)OCCO2)N1CCC(Cc2nc(-c3cccnc3)n[nH]2)C1` (stereo unspecified) showed an RP-LC retention time of 592 s. The figure for `Cc1cc(C)c(S(=O)(=O)N2CCC(c3noc(-c4ccccc4C)n3)CC2)c(C)c1` is 1430 s; for `CSc1ncn(-c2nc(N(C)C)nc(N3CCCCC3)n2)n1` it is 1090 s. `Cc1ccc(-c2nnc(Cc3nc(-c4ccc(OCC(C)C)cc4)no3)o2)cc1F` displayed an RP-LC retention time of 919 s.

`COc1cc2nc(N3CCC(N4CCCCC4)CC3)nc(NC3CCCCCC3)c2cc1OC`: the RP-LC retention time is 662 s. As for `COc1cccc(Cn2nc3ccc(S(=O)(=O)N4CCCCCC4)cn3c2=O)c1`, the RP-LC retention time was found to be 946 s. On to `COCCNC(=O)C(=O)NCCC(O)C(C)(C)C` (stereo unspecified), for which the RP-LC retention time amounted to 614 s.

In turn, `CCCc1noc(-c2ccnc(-n3cnc(C(=O)N4CCOCC4)c3)c2)n1` returned an RP-LC retention time of 747 s. In turn, `O=C(O)c1nnn(-c2ccc(Cl)cc2)c1C(F)(F)F` returned an RP-LC retention time of 828 s. The figure for `COCCn1c(CCCC(=O)Nc2ccc(Cl)cc2)nc2cccnc21` is 693 s; for `COc1ccccc1-c1cc2c(=O)n(Cc3nc(-c4cccc(OC)c4OC)oc3C)ccn2n1` it is 1060 s. Then `Cc1cccc2nnc(N3CCC(C(=O)Nc4cccc(F)c4)CC3)n12`, with 697 s; and `CCCNC(=O)c1cn(-c2ncccc2-c2nc(-c3ccccc3)no2)cn1`, with 823 s; and `O=C(N1CCC(Cc2ccc(COCc3ccncc3)cc2)CC1)C1(c2ccccc2)CC1`, with 795 s. `CCOC(=O)c1noc2nc(C)nc(Nc3ccc(CN4CCN(CC)CC4)cc3)c12` had an RP-LC retention time of 612 s. For `Cn1c(N2CCCC(C(=O)Nc3nccs3)C2)cc(=O)n(C)c1=O` (stereo unspecified), the RP-LC retention time is 634 s. In turn, `COc1ccc(C)cc1NC(=O)N1CC(c2nc(C)no2)C2(CCOCC2)C1` (stereo unspecified) returned an RP-LC retention time of 753 s. For `COCCCNc1onc(-c2ccc(Cl)cc2)c1C(=O)OC`, the RP-LC retention time came to 1000 s. Compound `CCNC(=O)N1CCC(c2noc(-c3ccccn3)n2)C1` (stereo unspecified) displayed an RP-LC retention time of 594 s. The figure for `Cn1nc(C(=O)N2CCOCC2)c2c1CCN(C(=O)Nc1ccccc1Br)C2` is 674 s. `CCc1ccc(C2=C(C)C(N3CCC(C(=O)NC(C)C)CC3)=NS2(=O)=O)cc1` came in with an RP-LC retention time of 812 s.

Compound `CCOC(=O)c1cc(C)n(CC(=O)N2CCOCCNC(=O)CC2)c1C` displayed an RP-LC retention time of 652 s. The figure for `CCc1ccc(S(=O)(=O)N2CCCC2c2nc(-c3ccc(Cl)cc3)no2)cc1` (stereo unspecified) is 1290 s. Regarding `COc1ccccc1N1CCN(C(=O)CC(C)S(=O)(=O)c2ccc3c(c2)CCN3C(C)=O)CC1` (stereo unspecified), the RP-LC retention time was determined as 754 s. `CCc1ccc(NC(=O)N2CCC3(CC2)NC(=O)c2ccccc2N3C)cc1` showed an RP-LC retention time of 808 s. In the case of `CCOCc1nc(C2CCCN(C(=O)NC(C)C)C2)no1` (stereo unspecified), the RP-LC retention time worked out at 704 s.

The compound `COc1ccc(C2Cn3nnc(C(=O)N4CCC(C(=O)NC5CCCC5)CC4)c3CO2)cc1` (stereo unspecified) yielded an RP-LC retention time of 769 s.

Take `CNC(=O)c1csc(NC(=O)c2cc(Cl)ccc2Cl)n1`: the RP-LC retention time amounted to 685 s. Compound `COC(=O)c1cc2c(=O)n(-c3cccc(Cl)c3)ccc2nc1C` returned an RP-LC retention time of 878 s. On to `Cc1cccc2nnc(N3CCC(C(=O)Nc4ccccc4F)CC3)n12`, for which the RP-LC retention time was determined as 677 s. The figure for `CCC(=O)N1CCc2sc(C(=O)N3CCN(c4ccccc4)CC3)cc2C1` is 794 s. Consider `COC(=O)COc1cc(O)c2c(=O)cc(-c3ccccc3)oc2c1`, for which the RP-LC retention time was 990 s. Consider `Cc1noc2ncn(CC(=O)NCCc3ccccc3Cl)c(=O)c12`, for which the RP-LC retention time was determined as 792 s. The figure for `COc1ccccc1NC(=O)C1C(=O)NC2(C)CC1c1ccccc1O2` (stereo unspecified) is 905 s. The figure for `CCn1cc(S(=O)(=O)NCc2cccc(Cl)c2)c2cccnc21` is 862 s. `O=C(NCCc1ccncc1)C1CN(S(=O)(=O)c2ccccc2)CC12CCCCC2` (stereo unspecified) displayed an RP-LC retention time of 641 s.

For `COc1ccc(-c2oc3ccc(OC)cc3c2C(=O)NCCN2CCOCC2)cc1`, the RP-LC retention time was determined as 591 s.

The compound `COC(=O)c1c(C)[nH]c(C(=O)N2CCCC(C(=O)NCCCN3CCCC3)C2)c1C` (stereo unspecified) returned an RP-LC retention time of 584 s. As to `Cc1ccc(-c2ccc(CNc3ncn[nH]3)o2)cc1Cl`, the RP-LC retention time worked out at 731 s.

Regarding `[O-][n+]1nc2ccccc2c2ccccc21`, the RP-LC retention time was 812 s. `CSc1ccc(CCNC(=O)CCCN2C(=O)CCn3nc(C)cc32)cc1` registered an RP-LC retention time of 690 s. The figure for `COc1ccc(OC)c(CNC(=O)c2[nH]c(C)c(S(=O)(=O)N3CCCC3)c2C)c1` is 822 s.

Compound `CC(Cc1cccs1)NC(=O)CCS(=O)(=O)c1ccccc1` (stereo unspecified) showed an RP-LC retention time of 746 s. For the compound `COc1ccc(C2CC(=O)N(Cc3ccccc3)C(=O)C2)cc1OC`, the RP-LC retention time was 904 s.

Consider `Cc1ccc(NC(=O)Cn2nc(N(C)C)c3ccccc3c2=O)c(F)c1`, for which the RP-LC retention time was found to be 805 s. In the case of `Cc1ccc(C)c(-c2coc(-c3ccc(NC(=O)NCc4ccc(F)cc4)cc3)n2)c1`, the RP-LC retention time amounted to 1190 s. For `O=c1[nH]c2ccc(NCc3ccc(Cl)c(Cl)c3)cc2[nH]1`, the RP-LC retention time turned out to be 707 s. For the compound `CSc1ccc(-c2noc(-c3nnn4c3COC(c3ccc(C)cc3C)C4)n2)cc1` (stereo unspecified), the RP-LC retention time was 1360 s. Turning to `COc1ccc(CNC(=O)Cc2nnc(-c3ccsc3)o2)c(OC)c1`, the RP-LC retention time is 692 s. The compound `Cc1csc(-c2ccc(N3CCN(C(=O)c4cc5ccccc5[nH]4)CC3)nc2)n1` yielded an RP-LC retention time of 852 s. `CC(=O)N1c2ccc(S(=O)(=O)N3CCCC3C(=O)Nc3cc(C)ccn3)cc2CC1C` (stereo unspecified) came in with an RP-LC retention time of 617 s. Compound `CCOc1ccccc1-c1noc(CN2C(=O)COc3ccc(S(=O)(=O)CC)cc32)n1` displayed an RP-LC retention time of 902 s. In turn, `Cc1cc(C(=O)N2CCC(CC(=O)NC3CC3)C2)n(C)n1` (stereo unspecified) showed an RP-LC retention time of 585 s.

The compound `COc1cc(NC(=O)Cn2c(=O)nc(N3CCC(C)CC3)c3ccccc32)cc(OC)c1` had an RP-LC retention time of 798 s. Then `CC(=O)Cc1nsc(NC(=O)c2ccc(-c3cccc(Cl)c3)o2)n1`, with 866 s; and `Cc1nc(-c2csc(S(=O)(=O)N3CCCC(C(=O)Nc4ccccc4)C3)c2)no1` (stereo unspecified), with 927 s; and `O=C(NCc1ccccc1Cl)C(=O)c1c[nH]c2ccccc12`, with 936 s. `Cc1cccc2nnc(N3CCN(C(=O)c4cc5c(s4)CCCC5)CC3)n12` displayed an RP-LC retention time of 605 s.

In turn, `CC1CCN(S(=O)(=O)N2CCC(C(=O)N3CCCC(Cc4nncn4CC4CC4)C3)CC2)CC1` (stereo unspecified) had an RP-LC retention time of 678 s.

Turning to `Cc1ccc(N2CCC(NC(=O)Cc3cccs3)C2=O)cc1` (stereo unspecified), the RP-LC retention time came out at 827 s. The compound `CCOC(=O)c1c(S(=O)(=O)N2CCC(C(=O)Nc3ccc(F)cc3)CC2)c(C)n(CC)c1C` returned an RP-LC retention time of 897 s. `CC(C)n1cnnc1C1CCN(C(=O)Cc2c[nH]c3ccccc23)CC1` yielded an RP-LC retention time of 626 s. On to `Cn1nnc2ccc(-c3noc(-c4cccc(F)c4)n3)cc21`, for which the RP-LC retention time is 1010 s. Then `Cc1ccc(-c2noc(Cn3c(=O)n(-c4ccc(F)cc4)c(=O)c4sccc43)n2)cc1C`, with 1080 s; and `O=C(CN1C(=O)NC(c2ccc(Cl)cc2)C2=C1COC2=O)Nc1ccc(Br)cc1F` (stereo unspecified), with 877 s. Compound `CCN1C(=O)c2cccnc2Sc2cc(NC(=O)COc3ccccc3C)ccc21` registered an RP-LC retention time of 860 s.

Compound `COc1ccc(OC)c2sc(N(CCN(C)C)C(=O)c3nc4ccccc4s3)nc12` displayed an RP-LC retention time of 715 s. On to `O=C(Nc1cccc(N2CC(C(=O)Nc3ccc(C(F)(F)F)cc3)CC2=O)c1)C1CCC1` (stereo unspecified), for which the RP-LC retention time came out at 880 s.

For the origin of these results see the METLIN SMRT retention time set (Domingo-Almenara et al. 2019).
